The values below come from paper PMC8269135, “Diethylstilbestrol, a Novel ANO1 Inhibitor, Exerts an Anticancer Effect on Non-Small Cell Lung Cancer via Inhibition of ANO1” (International Journal of Molecular Sciences, 2021).

As usually defined, the IC50 is the midpoint of a concentration-inhibition curve.

Assay [1] concerns the target T1, cystic fibrosis transmembrane conductance regulator (CFTR) (Homo sapiens, UniProt P13569).
T1 construct: human CFTR expressed in FRT cells
The assay can be described thus: YFP fluorescence and Ussing chamber short-circuit current in FRT-hCFTR cells, […]. The format is cell-based.

For another assay, the target named is T2, Anoctamin1 (ANO1) (Homo sapiens, UniProt Q5XXA6).
T2 construct: human ANO1 expressed in FRT cells (YFP assay, Ussing chamber) and HEK293 cells (patch clamp)
T2 sequence (Q5XXA6 1-986): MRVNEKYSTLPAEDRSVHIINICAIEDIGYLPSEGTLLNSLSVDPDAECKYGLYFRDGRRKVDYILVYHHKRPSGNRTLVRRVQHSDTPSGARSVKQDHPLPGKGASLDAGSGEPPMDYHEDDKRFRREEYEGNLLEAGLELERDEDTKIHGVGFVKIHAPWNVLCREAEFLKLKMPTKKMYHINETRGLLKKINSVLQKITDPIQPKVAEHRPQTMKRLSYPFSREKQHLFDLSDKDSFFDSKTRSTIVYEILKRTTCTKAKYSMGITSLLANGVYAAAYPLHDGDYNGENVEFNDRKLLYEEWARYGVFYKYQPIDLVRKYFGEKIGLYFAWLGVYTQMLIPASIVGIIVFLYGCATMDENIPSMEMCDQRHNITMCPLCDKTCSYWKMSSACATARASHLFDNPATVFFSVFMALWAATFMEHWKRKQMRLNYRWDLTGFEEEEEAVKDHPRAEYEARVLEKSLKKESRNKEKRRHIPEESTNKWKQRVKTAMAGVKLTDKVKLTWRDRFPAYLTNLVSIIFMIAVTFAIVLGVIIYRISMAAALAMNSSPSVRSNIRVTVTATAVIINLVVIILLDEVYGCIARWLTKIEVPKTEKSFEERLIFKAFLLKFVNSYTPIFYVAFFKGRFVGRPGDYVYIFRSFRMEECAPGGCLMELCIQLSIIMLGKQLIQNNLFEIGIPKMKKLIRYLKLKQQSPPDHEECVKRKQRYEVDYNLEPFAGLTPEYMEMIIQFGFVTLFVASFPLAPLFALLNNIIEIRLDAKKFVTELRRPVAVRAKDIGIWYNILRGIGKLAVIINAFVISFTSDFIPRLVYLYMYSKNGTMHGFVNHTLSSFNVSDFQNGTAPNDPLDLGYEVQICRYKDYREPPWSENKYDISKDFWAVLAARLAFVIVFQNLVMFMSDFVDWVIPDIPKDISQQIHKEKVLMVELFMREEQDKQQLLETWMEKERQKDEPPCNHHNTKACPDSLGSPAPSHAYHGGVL
Briefly: YFP quenching assay in FRT-ANO1 cells; short-circuit current; whole-cell patch clamp in HEK293. The format is cell-based. (In general: The patch-clamp technique gives a direct electrical read-out from membranes.)

T1 sequence (P13569 whole entry): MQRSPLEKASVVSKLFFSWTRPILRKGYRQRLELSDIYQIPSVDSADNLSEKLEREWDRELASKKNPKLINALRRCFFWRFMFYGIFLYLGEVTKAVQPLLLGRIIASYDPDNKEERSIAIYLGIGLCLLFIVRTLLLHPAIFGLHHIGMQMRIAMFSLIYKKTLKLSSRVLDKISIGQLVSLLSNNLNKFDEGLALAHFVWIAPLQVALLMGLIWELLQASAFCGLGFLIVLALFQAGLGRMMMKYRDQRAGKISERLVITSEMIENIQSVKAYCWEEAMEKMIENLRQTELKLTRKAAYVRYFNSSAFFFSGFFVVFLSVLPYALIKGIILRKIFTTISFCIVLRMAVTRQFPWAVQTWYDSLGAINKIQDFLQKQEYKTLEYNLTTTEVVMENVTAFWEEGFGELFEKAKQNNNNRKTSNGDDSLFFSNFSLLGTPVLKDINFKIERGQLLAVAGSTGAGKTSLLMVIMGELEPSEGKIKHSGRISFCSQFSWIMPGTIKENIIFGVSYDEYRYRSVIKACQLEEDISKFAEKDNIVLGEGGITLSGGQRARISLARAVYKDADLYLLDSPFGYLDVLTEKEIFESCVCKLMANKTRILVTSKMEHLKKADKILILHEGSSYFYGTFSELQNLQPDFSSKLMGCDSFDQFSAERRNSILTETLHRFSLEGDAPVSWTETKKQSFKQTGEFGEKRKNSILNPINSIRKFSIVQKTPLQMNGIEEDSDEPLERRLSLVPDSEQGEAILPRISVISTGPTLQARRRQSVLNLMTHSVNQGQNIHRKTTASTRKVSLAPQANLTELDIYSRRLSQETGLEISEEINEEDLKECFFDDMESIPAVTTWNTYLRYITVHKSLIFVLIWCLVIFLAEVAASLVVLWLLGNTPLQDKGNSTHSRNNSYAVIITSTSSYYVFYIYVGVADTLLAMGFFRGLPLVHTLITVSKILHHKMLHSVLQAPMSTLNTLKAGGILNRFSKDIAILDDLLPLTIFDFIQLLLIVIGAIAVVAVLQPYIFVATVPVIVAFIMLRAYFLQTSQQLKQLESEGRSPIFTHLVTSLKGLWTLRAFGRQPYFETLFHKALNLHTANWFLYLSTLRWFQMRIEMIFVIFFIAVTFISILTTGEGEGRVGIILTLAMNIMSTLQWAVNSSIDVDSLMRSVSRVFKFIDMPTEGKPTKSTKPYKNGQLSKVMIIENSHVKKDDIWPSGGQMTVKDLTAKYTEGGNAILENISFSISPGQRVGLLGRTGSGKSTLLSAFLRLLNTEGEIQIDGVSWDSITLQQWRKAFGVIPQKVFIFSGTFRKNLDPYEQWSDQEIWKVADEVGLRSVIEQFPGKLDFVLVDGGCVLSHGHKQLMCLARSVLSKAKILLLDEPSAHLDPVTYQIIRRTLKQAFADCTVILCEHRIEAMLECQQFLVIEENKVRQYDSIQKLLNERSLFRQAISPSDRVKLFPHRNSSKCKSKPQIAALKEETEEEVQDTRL

Regarding `O=C(O)c1ccc(/C=C2\SC(=S)N(c3cccc(C(F)(F)F)c3)C2=O)cc1` [CFTRinh-172], the “YFP fluorescence and Ussing chamber short-circuit current in FRT-hCFTR cells, 10” value in assay [1] is “forskolin-induced CFTR activity was inhibited by CFTRinh172 (a known CFTR channel inhibitor)”.

With `CC/C(=C(/CC)c1ccc(O)cc1)c1ccc(O)cc1` [DES, diethylstilbestrol], the IC50 against Anoctamin1 (ANO1) was 6.58 µM.
